Measured values as given in article PMC8871626, “UPLC-PDA-ESI-QTOF-MS/MS fingerprint of purified flavonoid enriched fraction of Bryophyllum pinnatum; antioxidant properties, anticholinesterase activity and in silico studies” (Pharmaceutical Biology, 2021).

Assays:
Assay type in all cases: biochemical
[1] = DPPH radical scavenging assay; conditions: for DPPH radical IC50: 3.125–100 µg/mL, 30 min in the dark, absorbance 518 nm, triplicate; for IC50: IC50 values in µM presented for comparison
Description: Based on the principle, when DPPH reacts with an antioxidant compound that can donate hydrogen, it is reduced. The change in colour from deep violet to golden/light yellow can be measured at 518 nm. Briefly, 1 mL of 0.3 mM of DPPH solution was added to 1 mL of each of the test solutions. […] The mixtures were vortexed thoroughly and allowed to stand at room temperature in the dark for 30 min, […]. The absorbance values were recorded at 518 nm, and converted into percentage antioxidant activity, using the formula below: Results were expressed as a percentage of inhibitions (100%). […] Each test was carried out in triplicates.
The % DPPH scavenging effect of the antioxidant was calculated as follows: (1) %DPPH scavenging effect=[A control – A sample/Acontrol]× 100

[2] = system: Fe2+-induced lipid peroxidation in rat brain homogenate; assay: Fe2+-induced lipid peroxidation (TBARS) assay in brain homogenate; conditions: for Lipid peroxidation IC50: FeSO4, 37 °C 30 min, TBARS 532 nm; for IC50: IC50 values in µM presented for comparison, read-out: LP (IC50 in µM)
Description: Thiobarbituric acid reactive species (TBARS) assay was used to measure the lipid peroxide formed using brain tissue homogenates as lipid-rich media, as described by Ruberto et al. ([2000]) with slight modifications. […] Thereafter, 0.05 mL of FeSO4 was added and the mixture was incubated at 37 °C for 30 min. Then, 1.5 mL of acetic acid was added, followed by 1.5 mL of TBA in SDS. The resulting mixture was mixed and heated at 95 °C for 60 min. After cooling, 5 mL of butanol was added and the mixture was centrifuged at 3000 rpm for 10 min. The absorbance of the organic upper layer was measured at 532 nm and the percentage inhibition was calculated with the formula: (2) %inhibition=[A control – A sample/Acontrol]×100

rat serum BuChE = target: T1, rat serum BuChE (Rattus norvegicus, UniProt Q9JKC1); assay: BuChE inhibition, Ellman's colorimetric method; conditions: BuChE IC50, rat blood enzyme, butyrylthiocholine iodide
T1 construct: from tissue; host or cells: rat blood (serum)
T1 sequence (Q9JKC1 24-597): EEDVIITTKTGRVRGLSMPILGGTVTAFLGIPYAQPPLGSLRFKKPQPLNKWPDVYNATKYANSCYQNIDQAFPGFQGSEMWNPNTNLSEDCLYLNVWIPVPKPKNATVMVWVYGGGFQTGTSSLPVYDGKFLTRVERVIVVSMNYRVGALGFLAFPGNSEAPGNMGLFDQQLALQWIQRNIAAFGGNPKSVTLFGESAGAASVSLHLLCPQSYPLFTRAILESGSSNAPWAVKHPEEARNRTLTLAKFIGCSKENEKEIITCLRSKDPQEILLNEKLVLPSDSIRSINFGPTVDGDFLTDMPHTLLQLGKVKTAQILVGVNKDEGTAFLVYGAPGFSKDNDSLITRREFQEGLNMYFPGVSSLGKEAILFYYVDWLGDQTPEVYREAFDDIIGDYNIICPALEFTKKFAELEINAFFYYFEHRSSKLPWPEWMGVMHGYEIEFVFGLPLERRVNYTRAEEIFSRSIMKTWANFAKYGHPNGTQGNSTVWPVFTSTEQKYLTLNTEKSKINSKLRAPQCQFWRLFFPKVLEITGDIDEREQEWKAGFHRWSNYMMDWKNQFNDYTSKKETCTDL
Description: Whole-brain tissue from adult male Wistar rat was used as a source of AChE enzyme and a lipid-rich media for lipid peroxidation assay while rat blood tissue was used as a source of BuChE enzyme.
For the enzyme source, the rat brains were homogenized in a homogenizer with 10 volumes of a homogenization buffer (10 mM Tris-HCl, pH 7.2) containing 1 M NaCl, 50 mM MgCl2 and1% Triton X-100 and centrifuged at 10,000 rpm for 30 min. The resulting supernatants were collected, and the solution of these supernatants was used as an enzyme source. The temperature was maintained at 4 °C throughout the excretion procedure. The rate of AChE hydrolysis was monitored spectrophotometrically. […] Absorbance at 405 nm was recorded immediately after adding Ellman’s reaction mixture (3.5 mL; 0.5 mM acetylthiocholine, 1 mM DTNB) in a 50 mM sodium phosphate buffer (pH 8.0) to the reaction mixture. Readings were repeated for 30 min to verify the reaction. […] The percentage of AChE inhibition was calculated using the following formula: (3) %Cholinesterase inhibition=[A control – A sample/Acontrol]×100
Assessment of BuChE inhibition was performed as described in Equation (3) except that the enzyme solution was (100 μL) acetylthiocholine iodide was replaced with butyrylthiocholine iodide. All other reagents and conditions remained the same.

For O=C1O[C@H]([C@@H](O)CO)C(O)=C1O [Ascorbic acid, ascorbic acid], the “DPPH radical IC50” value [1] was 10.186 ± 0.14 µg/mL, the IC50 [1] was 57.8 ± 0.827 µM and the “Lipid peroxidation IC50” value [2] was 14.393 ± 0.54 µg/mL. For the same compound, the IC50 [2] was 81.72 ± 0.309 µM.

In the case of O=c1c(O)c(-c2ccc(O)c(O)c2)oc2cc(O)cc(O)c12 [Quercetin], the “DPPH radical IC50” value [1] is reported as 13.803 ± 0.34 µg/mL, the IC50 [1] is reported as 45.7 ± 1.13 µM and the IC50 (rat serum BuChE) is reported as 80.5 µM. For the same compound, the “Lipid peroxidation IC50” value [2] was 25.242 ± 1.97 µg/mL and the IC50 [2] was 83.51 ± 0.654 µM.
